# Reference: US10953027B2, “Active agents and methods of their use for the treatment of metabolic disorders and nonalcoholic fatty liver disease” (Flagship Pioneering Innovations V, Inc., priority 2018, dated 2021)
# How the values were obtained:
# AhR = AhR activation in Caco-2 cells through CYP1A1 mRNA expression
# Procedure: Caco-2 cells from American Type Culture Collection (ATCC) were plated in a sterile tissue culture treated 96-well plate (ThermoFisher) at […] per well, and grown overnight at 37° C., 5% CO2 in DMEM complete (Gibco) in order to achieve confluence. After the incubation medium was aspirated from the Caco-2 monolayers, tissues were then washed with 200 μL of warmed PBS solution, and subsequently 190 μL of pre-warmed growth medium was added to each well. Compounds of interest were diluted at a 20× concentration in growth medium containing 2% DMSO, and 10 μL of compound solutions were added to respective wells in triplicate. Compounds where incubated overnight at 37° C., 5% CO2. 2-(1′H-indole-3′-carbonyl)-thiazole-4-carboxylic acid methyl ester (ITE) was used as the positive control for AhR activation at 1 and 100 μM concentrations. At the end of the incubation, medium was aspirated off of the Caco-2 cells, and washed with 100 μL of cold PBS solution. RNA was extracted via the TaqMan™ Gene Expression Cells-to-CT™ Kit (ThermoFisher) according to the manufacturers protocol. The QuantStudio 6 Flex (Applied Biosciences) was used to analyze mRNA levels of CYP1A1 using GAPDH as the endogenous control. TaqMan™ probe sets for both genes were acquired from ThermoFisher. Samples were run in triplicate and data was analyzed using the QuantStudio software and reported as linear (Table 1) and log 2(ΔΔCT) values. Statistical analysis was performed using a two-tailed t-test comparing CYP1A1 levels in the presence of each individual compound to the vehicle negative control.
# [1] = test system: Primary human subcutaneous adipocytes; assay: Glucose uptake in human subcutaneous adipocytes, insulin sensitive model; format: cell-based
# Procedure: Primary human subcutaneous adipocytes (Zen Bio, Research Triangle Park, N.C.) were differentiated for two weeks prior to treatment. Cells were treated with indicated compounds diluted in (dimethyl-sulfoxide) DMSO in serum free medium for 24 hours in triplicate. After 24 hours, media was exchanged for assay buffer and the compounds were added again but in the presence of approximately 1 nM insulin. Glucose uptake was initiated with the addition of a cocktail containing 2-deoxyglucose and ^3H-2-deoxyglucose and allowed to incubate for 2 hours. Cells were washed, lysed and glucose uptake was measured as counts per well. As an assay control, 100 nM of insulin was used during the 2 hours of glucose uptake. […] Statistical changes in glucose uptake were determined by way ANOVA and compared to DMSO.
# [2] = test system: Primary human subcutaneous adipocytes; assay: Glucose uptake in human subcutaneous adipocytes, insulin resistant model; format: cell-based
# Procedure: As described above, primary human subcutaneous adipocytes were differentiated for two weeks prior to treatment. To induce an insulin resistant state, cells were treated in serum free Dulbecco's Modified Eagle Medium (high glucose) and […] for 24 hours. Cells were simultaneously treated with compounds diluted in DMSO for 24 hours. As described above, after 24 hours, media was exchanged for assay buffer and the compounds were added again but in the presence of approximately 1 nM insulin. Cells were washed and lysed after 2 hours and glucose uptake was measured. […] Statistical changes in glucose uptake were determined by way ANOVA and compared to DMSO.
# Caco-2 colonocytes = assay: Human Caco-2 barrier integrity assay (TEER); format: cell-based; details: 48 hours
# Procedure: Caco-2 colonocytes were maintained at 37° C. and 5% CO2 in Dulbecco's Modified Eagle Medium (DMEM) and supplemented with 10% FBS, 1% NEAA, 1% penicillin-streptomycin. At 70-80% confluency, cells were trypsinized and seeded in 0.4 cm^2 transwell collagen I coated membranes with supplemented DMEM in both apical and basolateral compartments. Cells were seeded at a density of 200,000 cells per well and maintained for 10 days to form a polarized barrier with a TransEpithelial Electrial Resistance (TEER) reading above 1000Ω. On the first day of the assay, initial TEER readings were taken and cytokines were added to the basolateral media (50 ng/mL TNFα, 25 ng/mL IFNγ and 10 ng/mL IL-1β) to reduce barrier integrity while compounds diluted in (dimethylsulfoxide) DMSO were added to the apical media in triplicate. After 48 hours, TEER readings were taken again and viability was measured by CellTiter 96® AQueous One Solution Cell Proliferation Assay (Promega). The percent change in TEER over the 48 hours was determined and normalized to the 0.1% DMSO control (Table 6).
# Mouse 3T3-L1 cells = assay: Mouse adipocyte lipolysis assay; format: cell-based; details: Mus musculus, 3T3-L1, 24 hours, read-out: Lipolysis Free Fatty Acids % DMSO
# Procedure: Once the cells became confluent, they were seeded into a tissue culture treated 96 well plate. […] After 14 days of differentiation, cells were treated with compounds of interest. After 24 hours post-treatment, the cell viability was assessed using CellTiter-Glo Luminescent Cell Viability Assay from Promega, and lipolysis was determined using Lipolysis Assay Kit from ZenBio.
# Mouse myocyte = Mouse myocyte lipolysis assay; format: cell-based; details: Mus musculus, read-out: Free glycerol % DMSO
# Procedure: Cells were obtained from ATCC and cultured in Dulbecco's Modified Eagle's medium (DMEM) containing 20% fetal bovine serum and 1% penicillin/streptomycin at 37° C. in an incubator with 5% CO2. Once the cells became confluent, they were seeded into a tissue culture treated 96 well plate. The next day, the medium containing DMEM with 2% equine serum was used to start differentiation. Once cells were fully differentiated, they were treated with indicated compounds.
# naïve CD4+ T cells = assay: Human regulatory T cell differentiation assay; format: cell-based; details: 6 days
# Procedure: Peripheral blood mononuclear cells (PBMCs) from whole blood donated by health volunteers were separated by Ficoll-Paque gradient centrifugation and naïve CD4^+ T cells were subsequently isolated using magnet beads (EasySep™ Human Naïve CD4^+ T Cell Isolation Kit, Cambridge, Mass.). For regulatory T cell (Treg) differentiation assay, naïve CD4^+ T cells were cultured (1-10×10^4 cells) in CTS OpTmizer medium for 6 days and stimulated with 5 ng/ml TGF-β, 100 U/ml IL-2, and ImmunoCult™ Human […] T Cell Activator; Stemcell #10990) with/without our Compounds. Cell viability was determined using a viability dye (eBioscience Fixable Viability Dye eFluor 780: ThermoFisher 65-0865-14) at 1:500 dilution. The cells were gated for Treg, defined as Live, CD11c^−, CD14^−, CD19^−, CD8^−, CD4^+, CD3^+, CD25^+, FOXP3^+. Percent (%) Tregs were calculated as percentage of CD4^+, CD25^+, FOXP3^+ cells over total CD4^+ T cells. Statistical analysis was performed with GraphPad Prism Software Using One-Way ANOVA.
# [3] = test system: Human Peripheral Blood Monocytes (PBMCs); assay: Cytokine release from human PBMCs; format: cell-based; details: 100 μM, LPS, 24 hours
# Procedure: Human donor blood (8 mL) was collected in sodium citrate CPT tubes and centrifuged at 1,600×g for 20 minutes at room temperature. […] PBMCs samples were centrifuged at 400×g for 10 minutes at 10° C. […] PBMCs were filtered through a 70 micron mesh to remove any cellular debris. […] PBMCs in a 96-well plate were rested for 30 minutes in a 37° C., 5% CO2 incubator, then subsequently treated with 10 μl of indicated compound. After 2 hours 10 μL of LPS (O111:B4) 1 mg/mL was added to test wells. After 24 hours of incubation at 37° C., 5% CO2, 100 μL of cell supernatant was collected and transferred to a 96-well plate (non-tissue treated, flat bottom). The plate was centrifuged at 350×g for 5 minutes at room temperature, and then the clear supernatant transferred to a new 96-well plate (non-tissue treated, flat bottom). The remaining cells were tested for viability using CellTiter-Glo® Luminescent Cell Viability Assay (Promega). The supernatant was analyzed for TNFα, IL-6 and IL-1β (kit LXSAHM-03; R&D Systems), using Luminex Immunoassay Technology (MAGPIX System). Cytokine levels of LPS treated DMSO control samples were set to 100%, and compound treated samples were expressed relative to this (Table 13).
# [4] = Homo sapiens, CD4+ T, 144 h, 1 uM, read-out: Treg induction % DMSO
structure (smiles),measurement,setting,value
Cn1cc(C[C@H](N)C(=O)O)c2ccccc21 [1-methylindole-3-alanine],Average CYP1A1 mRNA levels,AhR; Conc. 10.0 μM,+ (+ = >2-fold Vehicle)
same,Average CYP1A1 mRNA levels,AhR; Conc. 100.0 μM,+++ (+++ = >10-fold Vehicle)
"CC(=O)O [Acetate, acetic acid]",Insulin Sensitive % DMSO (glucose uptake),[1]; 1 mM,= (50%> ≤110%: =)
same,Insulin Sensitive % DMSO (glucose uptake),[1]; 3 mM,= (50%> ≤110%: =)
same,Insulin Resistant % DMSO (glucose uptake),[2]; 1 mM,= (50%> ≤110%: =)
same,Insulin Resistant % DMSO (glucose uptake),[2]; 3 mM,= (50%> ≤110%: =)
same,% Change in TEER from DMSO,Caco-2 colonocytes; 1 mM + cytokines,− (≤125%: −)
same,% Change in TEER from DMSO,Caco-2 colonocytes; 3 mM + cytokines,− (≤125%: −)
same,activity at 1000 µM,Mouse 3T3-L1 cells; 1 mM,50 to 70%
same,activity at 3000 µM,Mouse 3T3-L1 cells; 3 mM,50 to 70%
same,activity at 1000 µM,Mouse myocyte; 1 mM,90 to 100%
same,activity at 3000 µM,Mouse myocyte; 3 mM,90 to 100%
same,Cell viability % DMSO,naïve CD4+ T cells; 1 mM,= (90%≥ ≤110%: =)
same,Cell viability % DMSO,naïve CD4+ T cells; 3 mM,= (90%≥ ≤110%: =)
same,activity at 1000 µM,"naïve CD4+ T cells; Homo sapiens, CD4+ T, 144 h, 1 mM, read-out: Treg induction % DMSO",110 to 130%
same,activity at 3000 µM,"naïve CD4+ T cells; Homo sapiens, CD4+ T, 144 h, 3 mM, read-out: Treg induction % DMSO",> 130%
same,IL6 % DMSO control,[3],= ((=) 90%≥ <110% DMSO)
same,ILβ % DMSO control,[3],= ((=) 90%≥ <110% DMSO)
same,TNFα % of DMSO control,[3],= ((=) 90%≥ <110% DMSO)
O=C(O)c1ccccc1 [Benzoic acid],Average CYP1A1 mRNA levels,AhR; Conc. 10.0 μM,+ (+ = >2-fold Vehicle)
same,Average CYP1A1 mRNA levels,AhR; Conc. 100.0 μM,+ (+ = >2-fold Vehicle)
"COC(=O)c1csc(C(=O)c2c[nH]c3ccccc23)n1 [ITE, 2-(1′H-indole-3′-carbonyl)-thiazole-4-carboxylic acid methyl ester]",Average CYP1A1 mRNA levels,AhR; Conc. 1.0 μM,+++ (+++ = >10-fold Vehicle)
"O=c1c(O)c(-c2ccc(O)c(O)c2)oc2cc(O)cc(O)c12 [Quercetin, quercetin]",Insulin Sensitive % DMSO (glucose uptake),[1]; 100 nM,= (50%> ≤110%: =)
same,Insulin Sensitive % DMSO (glucose uptake),[1]; 1 μM,= (50%> ≤110%: =)
same,Insulin Resistant % DMSO (glucose uptake),[2]; 100 nM,= (50%> ≤110%: =)
same,Insulin Resistant % DMSO (glucose uptake),[2]; 1 μM,= (50%> ≤110%: =)
same,% Change in TEER from DMSO,Caco-2 colonocytes; 1 μM + cytokines,+ (125%> ≤150%: +)
same,% Change in TEER from DMSO,Caco-2 colonocytes; 100 μM + cytokines,− (≤125%: −)
same,activity at 0.1 µM,Mouse 3T3-L1 cells; 100 nM,50 to 70%
same,activity at 1 µM,Mouse 3T3-L1 cells,50 to 70%
same,activity at 0.1 µM,Mouse myocyte; 100 nM,70 to 90%
same,activity at 1 µM,Mouse myocyte,70 to 90%
same,Cell viability % DMSO,naïve CD4+ T cells; 100 nM,= (90%≥ ≤110%: =)
same,Cell viability % DMSO,naïve CD4+ T cells; 1 uM,= (90%≥ ≤110%: =)
same,activity at 0.1 µM,"naïve CD4+ T cells; Homo sapiens, CD4+ T, 144 h, 100 nM, read-out: Treg induction % DMSO",90 to 110%
same,activity at 1 µM,naïve CD4+ T cells; [4],90 to 110%
same,IL6 % DMSO control,[3],+ ((+) 50%≥ <90% DMSO)
same,ILβ % DMSO control,[3],+ ((+) 50%≥ <90% DMSO)
same,TNFα % of DMSO control,[3],+ ((+) 50%≥ <90% DMSO)
"Oc1ccc(C=Cc2cc(O)cc(O)c2)cc1 [Resveratrol, resveratrol]",Insulin Sensitive % DMSO (glucose uptake),[1]; 10 μM,= (50%> ≤110%: =)
same,Insulin Sensitive % DMSO (glucose uptake),[1]; 100 μM,− (<50%: −)
same,Insulin Resistant % DMSO (glucose uptake),[2]; 10 μM,= (50%> ≤110%: =)
same,Insulin Resistant % DMSO (glucose uptake),[2]; 100 μM,− (<50%: −)
same,% Change in TEER from DMSO,Caco-2 colonocytes; 10 μM + cytokines,− (≤125%: −)
same,% Change in TEER from DMSO,Caco-2 colonocytes; 100 μM + cytokines,+++ (200%>: +++)
same,activity at 1 µM,Mouse 3T3-L1 cells,70 to 90%
same,activity at 10 µM,Mouse 3T3-L1 cells; 10 μM,90 to 100%
same,activity at 1 µM,Mouse myocyte,70 to 90%
same,activity at 10 µM,Mouse myocyte; 10 μM,50 to 70%
same,Cell viability % DMSO,naïve CD4+ T cells; 1 uM,− (<90%: −)
same,Cell viability % DMSO,naïve CD4+ T cells; 10 uM,− (<90%: −)
same,activity at 1 µM,naïve CD4+ T cells; [4],110 to 130%
same,activity at 10 µM,"naïve CD4+ T cells; Homo sapiens, CD4+ T, 144 h, 10 uM, read-out: Treg induction % DMSO",110 to 130%
same,IL6 % DMSO control,[3],+ ((+) 50%≥ <90% DMSO)
same,ILβ % DMSO control,[3],= ((=) 90%≥ <110% DMSO)
same,TNFα % of DMSO control,[3],+ ((+) 50%≥ <90% DMSO)
"CC(O)CCO (stereo not shown) [butanediol, 1,3-butanediol]",Average CYP1A1 mRNA levels,AhR; Conc. 500.0 μM,− (− = +2-fold Vehicle)
same,% Change in TEER from DMSO,Caco-2 colonocytes; 100 μM + cytokines,− (≤125%: −)
same,% Change in TEER from DMSO,Caco-2 colonocytes; 0.5 mM + cytokines,− (≤125%: −)
same,IL6 % DMSO control,[3],= ((=) 90%≥ <110% DMSO)
same,ILβ % DMSO control,[3],= ((=) 90%≥ <110% DMSO)
same,TNFα % of DMSO control,[3],= ((=) 90%≥ <110% DMSO)
OCc1c[nH]c2ccccc12 [indole-3-carbinol],Average CYP1A1 mRNA levels,AhR; Conc. 1000.0 μM,+ (+ = >2-fold Vehicle)
c1ccc2[nH]ccc2c1 [indole],Average CYP1A1 mRNA levels,AhR; Conc. 1000.0 μM,+ (+ = >2-fold Vehicle)
